According to patent US10000452B1, “Quinolone-based compounds, formulations, and uses thereof” (University of South Florida, priority 2016, dated 2018):
Read-outs that look alike come from different tables or passages of the source.

Columns and labels:
J774 mammalian cells = assay: cytotoxicity to J774 cells; type: cell-based; settings: Mus musculus
Experimental: This allowed a simplified method for comparing the different assays being simultaneously run. Additionally, each compound was also tested for cytotoxicity using mammalian J774 cell lines in a 96-well plate format.^12-14, 16

[1] = tested on: malarial strain W2 (pyrimethamine and chloroquine-resistant); assay: in vitro antimalarial activity against multidrug resistant strain W2; type: cell-based, P. falciparum; settings: for EC50: Plasmodium falciparum, read-out: EC50 W2 (nM); for EC50 W2 (nM): blood stage in vitro, strain W2
[2] = tested on: malarial strain TM90-C2B (mefloquine, chloroquine, atovaquone, and pyrimethamine-resistant); assay: microbe, parasite or virus in culture; type: cell-based, P. falciparum; settings: for RI: RI = EC50 TM90-C2B/EC50 W2; for EC50: Plasmodium falciparum, TM90, read-out: EC50 TM90-C2B (nM); for EC50 TM90-C2B (nM): blood stage in vitro, atovaquone-resistant strain TM90-C2B
Description: Ideally, the RI of a compound should lie between 0.3 and 3.0 in order to avoid rapidly inducing resistance in the parasite. […]

[3] = tested on: P. berghei sporozoites expressing luciferase; assay: in vitro liver stage activity, luciferase sporozoites infecting HEPG2 hepatoma cells; type: cell-based; settings: HEPG2 cells; for EC50: Plasmodium berghei
Pb-infected mice = assay: in vivo efficacy scouting assay against blood stages; set-up: species or system P. berghei; mice; settings: Example 2: two mice, single 50 mg/kg oral dose in PEG400 on day 1 PE
Experimental: The screening involved a single oral 50 mg/kg dose 1 day post infection (PI) and an assessment of parasitemia on days 3 PI and 6 PI (Table 6).
The screening was performed by treating two infected mice with a single 50 mg/kg oral dose of test compound suspended in PEG400 on day 1 postexposure (PE) followed by assessing parasitemia on days 3 and 6 PE.

[4] = aqueous solubility (LC/MS- or HPLC-based assay); type: physicochemical; settings: aqueous solution (buffer not named), aqueous buffer, Example 2, at any given pH; read-out: solubility
Description: Furthermore, to profile the properties of the piperazinyl-4(1H)-quinolones, and to identify potential limitations, aqueous solubility and lipophilicity log D were experimentally determined via LC/MS-based assays as described by the Manetsch laboratory previously^8,10,31,32 (Tables 9-12). Encouragingly, the piperazinyl-4(1H)-quinolones were much more soluble than the previously described phenoxyethoxy-4(1H)-quinolone analogues.^19 As expected, the solubility of all compounds was affected by pH, with better solubility under more acidic conditions.
In parallel to testing the compounds for in vitro antimalarial activity, a limited structure-property relationship (SPR) study focusing on log D and aqueous solubility was conducted to assess potential physiochemical liabilities (FIG. 22). […] For these reasons, physicochemical properties were not strongly considered as selection criteria for in vivo efficacy studies.

Compound | EC50 [1] | RI [2] | EC50 [2] | EC50 W2 (nM) [1] | further results
CCN(CC)CCCC(C)Nc1ccnc2cc(Cl)ccc12 (stereo not drawn) [CQ, Chloroquine, reference compound] |  |  |  |  | EC50 (J774 mammalian cells; J774, cytotoxicity, 96 well plate format, read-out: EC50 J774): 47.2 µM
COC(=O)c1c[nH]c2cc(OCCOc3ccccc3)ccc2c1=O [Compound 6a, Methyl 4-Oxo-7-(2-phenoxyethoxy)-1,4-dihydroquinoline-3-carboxylate] | 2.8 nM | 26.3 |  |  | EC50 Pb (nM) [3]: subnanomolar; EC50 [3]: 0.286 nM
COC(=O)c1c[nH]c2cc(OCCOc3ccccc3)c(OC)cc2c1=O [Compound 6aa, Methyl 6-Methoxy-4-oxo-7-(2-phenoxyethoxy)-1,4-dihydroquinoline-3-carboxylate] |  | 1.60 |  |  | 
COC(=O)c1c[nH]c2cc(OCCOc3ccccc3)c(Cl)cc2c1=O [Compound 6ab, Methyl 6-Chloro-4-oxo-7-(2-phenoxyethoxy)-1,4-dihydroquinoline-3-carboxylate] | 9.93 nM |  | 617 nM |  | EC50 [3]: 0.063 nM
COC(=O)c1c[nH]c2cc(OCCOc3ccccc3)c(C)cc2c1=O [Compound 6ac, Methyl 6-Methyl-4-oxo-7-(2-phenoxyethoxy)-1,4-dihydroquinoline-3-carboxylate] | 2.01 nM |  | 499 nM |  | EC50 [3]: 152 nM
CCCCc1cc2c(=O)c(C#N)c[nH]c2cc1OCCOc1ccccc1 [Compound 6ad, 6-Butyl-4-oxo-7-(2-phenoxyethoxy)-1,4-dihydroquinoline-3-carbonitrile] |  |  |  | high double-digit nM range | 
CCCCc1cc2c(=O)c(C(=O)OCC)c[nH]c2cc1OCCOc1ccccc1 [Compound 6af, Ethyl 6-Butyl-4-oxo-7-(2-phenoxyethoxy)-1,4-dihydroquinoline-3-carboxylate] | 0.143 nM |  |  |  | EC50 Pb (nM) [3]: subnanomolar
CCCCc1cc2c(=O)c(C(C)=O)c[nH]c2cc1OCCOc1ccccc1 [Compound 6ag, 3-Acetyl-6-butyl-7-(2-phenoxyethoxy)quinolin-4(1H)-one] | 9.67 nM |  |  |  | 
CCCCc1ccc2[nH]cc(C(=O)OC)c(=O)c2c1 [Compound 6c, Methyl 6-Butyl-4-oxo-1,4-dihydroquinoline-3-carboxylate] | 1.58 nM | 141 | 222 nM |  | EC50 Pb (nM) [3]: subnanomolar; EC50 [3]: 0.819 nM
COC(=O)c1c[nH]c2ccccc2c1=O [Compound 6d, Methyl 4-Oxo-1,4-dihydroquinoline-3-carboxylate] |  |  |  | retained respectable potency | EC50 TM90-C2B (nM) [2]: devoid of any activity
COC(=O)c1c[nH]c2ccc(OCc3ccccc3)cc2c1=O [Compound 6e, Methyl 6-(Benzyloxy)-4-oxo-1,4-dihydroquinoline-3-carboxylate] | 11.6 nM |  | 1100 nM |  | EC50 [3]: 127 nM
COC(=O)c1c[nH]c2ccc(OCCc3ccccc3)cc2c1=O [Compound 6f, Methyl 4-Oxo-6-phenethoxy-1,4-dihydroquinoline-3-carboxylate] |  |  |  | double-digit nM | 
COC(=O)c1c[nH]c2ccc(OCCCc3ccccc3)cc2c1=O [Compound 6g, Methyl 4-Oxo-6-(3-phenylpropoxy)-1,4-dihydroquinoline-3-carboxylate] |  |  |  | double-digit nM | % inhibition on day 6 PE (Pb-infected mice): lack of significant parasitemia reduction
COC(=O)c1c[nH]c2cc(Cl)ccc2c1=O [Compound 6l, Methyl 7-Chloro-4-oxo-1,4-dihydroquinoline-3-carboxylate] |  |  |  | devoid of antimalarial activity | 
COC(=O)c1c[nH]c2cc(-c3ccccc3)ccc2c1=O [Compound 6m, Methyl 4-Oxo-7-phenyl-1,4-dihydroquinoline-3-carboxylate] |  |  |  | devoid of antimalarial activity | 
COC(=O)c1c[nH]c2cc(F)ccc2c1=O [Compound 6n, Methyl 7-Fluoro-4-oxo-1,4-dihydroquinoline-3-carboxylate] | 26.2 nM |  | 395 nM |  | 
COC(=O)c1c[nH]c2ccc(-c3ccccc3)cc2c1=O [Compound 6u, Methyl 4-Oxo-6-phenyl-1,4-dihydroquinoline-3-carboxylate] |  |  |  | devoid of activity | 
Cc1[nH]c2cc(CN3CCN(c4ccc(C(F)(F)F)cc4)CC3)ccc2c(=O)c1Br [Compound 8aq, 3-Bromo-2-methyl-7-((4-(4-(trifluoromethyl)phenyl)piperazin-1-yl)methyl)quinolin-4(1H)-one] | 121 nM | 0.79 | 95.4 nM |  | EC50 (J774 mammalian cells; J774, read-out: EC50 J774 (μM)): > 20 µM
Cc1[nH]c2cc(CN3CCN(c4ccc(C(F)(F)F)cc4)CC3)ccc2c(=O)c1Cl [Compound 8ar, 3-Chloro-2-methyl-7-((4-(4-(trifluoromethyl)phenyl)piperazin-1-yl)methyl)quinolin-4(1H)-one] | 139 nM | 10.9 | 1510 nM |  | EC50 (J774 mammalian cells; J774, read-out: EC50 J774 (μM)): > 20 µM
COc1cc2c(=O)c(Br)c(C)[nH]c2cc1CN1CCN(c2ccc(C(F)(F)F)cc2)CC1 [Compound 8at, 3-Bromo-6-methoxy-2-methyl-7-((4-(4-(trifluoromethyl)phenyl)piperazin-1-yl)methyl)quinolin-4(1H)-one] | 128 nM | >39.1 | > 5000 nM |  | EC50 (J774 mammalian cells; J774, read-out: EC50 J774 (μM)): > 20 µM
CCCCc1cc2c(=O)c(C(=O)NC)c[nH]c2cc1OCCOc1ccccc1 [Compound 13a, 6-Butyl-N-methyl-4-oxo-7-(2-phenoxyethoxy)-1,4-dihydroquinoline-3-carboxamide] | 13.3 nM |  | 3980 nM |  | 
CCCCc1cc2c(=O)c(C(=O)NCCO)c[nH]c2cc1OCCOc1ccccc1 [Compound 13d, 6-Butyl-N-(2-hydroxyethyl)-4-oxo-7-(2-phenoxyethoxy)-1,4-dihydroquinoline-3-carboxamide] |  |  |  |  | solubility [4]: > 20 µM
CCCCc1cc2c(=O)c(C(=O)NC(C)C)c[nH]c2cc1OCCOc1ccccc1 [Compound 13e, 6-Butyl-N-isopropyl-4-oxo-7-(2-phenoxyethoxy)-1,4-dihydroquinoline-3-carboxamide] |  |  |  | completely inactive | 
CCCCc1cc2c(=O)c(I)c[nH]c2cc1OCCOc1ccccc1 [Compound 16b, 6-Butyl-3-iodo-7-(2-phenoxyethoxy)quinolin-4(1H)-one] | 1.23 nM | 4.91 | 6.04 nM |  | 
CCCCc1cc2c(=O)c(Br)c[nH]c2cc1OCCOc1ccccc1 [Compound 16d, 3-Bromo-6-butyl-7-(2-phenoxyethoxy)quinolin-4(1H)-one] | 4.64 nM |  | 48.7 nM |  | 
CCCCc1cc2c(=O)c(Cl)c(C)[nH]c2cc1OCCOc1ccccc1 [Compound 16e, 6-Butyl-3-chloro-2-methyl-7-(2-phenoxyethoxy)quinolin-4(1H)-one] | 6.92 nM | 9.79 | 67.7 nM |  | 
C[C@H]1[C@@H](O)O[C@@H]2O[C@@]3(C)CC[C@H]4[C@H](C)CC[C@@H]1[C@@]24OO3 [DHA, dihydroartemisinin, reference compound] |  |  |  |  | EC50 (J774 mammalian cells; J774, read-out: EC50 J774 (μM)): 1.53 µM
Methyl 4-oxo-7-(4-phenylpiperazin-1-yl)-1,4-dihydroquinoline-3-carboxylate [Compound 8a] |  | ~1 |  | inhibition against W2 was lost | 
Methyl 6-methyl-4-oxo-7-(4-phenylpiperazin-1-yl)-1,4-dihydroquinoline-3-carboxylate [Compound 8c] |  |  |  | retained respectable potency | EC50 TM90-C2B (nM) [2]: devoid of any activity
